Laboratory results published in PubChem BioAssay (NCI).
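Briefly, cells in 96-well plates were exposed to five compound concentrations for 48 h, and endpoints were estimated by linear interpolation. Here, GI50 denotes the concentration required for 50% inhibition of growth. TGI: concentration producing complete growth inhibition.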

How the values were obtained:
Assay in all cases: NCI-60 cell line screen, 48 h
NCI-H460 lung = test system: NCI-H460 lung
M19-MEL melanoma = test system: M19-MEL melanoma
SF-295 CNS = test system: SF-295 CNS
SNB-78 CNS = test system: SNB-78 CNS
UO-31 renal = test system: UO-31 renal
RXF 393 renal = test system: RXF 393 renal
HCT-116 colon = test system: HCT-116 colon
OVCAR-5 ovarian = test system: OVCAR-5 ovarian
NCI-H226 lung = test system: NCI-H226 lung
DU-145 prostate = test system: DU-145 prostate

Row | Compound | TGI (NCI-H460 lung) [µM] | TGI (M19-MEL melanoma) [µM] | TGI (SF-295 CNS) [µM] | TGI (SNB-78 CNS) [µM] | TGI (UO-31 renal) [µM] | TGI (RXF 393 renal) [µM] | TGI (HCT-116 colon) [µM] | TGI (OVCAR-5 ovarian) [µM] | GI50 (NCI-H460 lung) [µM] | GI50 (SF-295 CNS) [µM] | GI50 (SNB-78 CNS) [µM] | GI50 (RXF 393 renal) [µM] | GI50 (HCT-116 colon) [µM] | TGI (NCI-H226 lung) [µM] | GI50 (NCI-H226 lung) [µM] | TGI (DU-145 prostate) [µM]
1 | CC(C)(C)CC(C)(C)c1cc2c(O)c(c1)Cc1cc(C(C)(C)CC(C)(C)C)cc(c1O)Cc1cc(C(C)(C)CC(C)(C)C)cc(c1O)Cc1cc(C(C)(C)CC(C)(C)C)cc(c1O)Cc1cc(C(C)(C)CC(C)(C)C)cc(c1O)Cc1cc(C(C)(C)CC(C)(C)C)cc(c1O)Cc1cc(C(C)(C)CC(C)(C)C)cc(c1O)Cc1cc(C(C)(C)CC(C)(C)C)cc(c1O)C2 | > 100 | > 100 | > 100 | > 100 | > 100 | > 100 | > 100 | > 100 | – | – | – | – | – | – | – | –
2 | CC(C)CCCC(C)[C@H]1CCC2C3CC=C4C[C@@H](OC(=O)CC(CC(=O)[O-])C(=O)[O-])CC[C@]4(C)C3CC[C@@]21C.N.N.[Pt+4] (stereo partly drawn) | > 100 | – | > 100 | > 100 | – | > 100 | > 100 | – | > 100 | > 100 | > 100 | 47.1 | > 100 | – | – | –
3 | O=C(/C=C/c1ccco1)N1CCN(Cc2ccccc2)CC1 | > 100 | > 100 | > 100 | > 100 | > 100 | – | > 100 | > 100 | – | – | – | – | – | – | – | –
4 | CCOc1ccc2c(c1)[n+]([O-])c(-c1ccc([N+](=O)[O-])cc1)c(N)[n+]2[O-] | > 100 | > 100 | > 100 | > 100 | > 100 | > 100 | > 100 | > 100 | – | – | – | – | – | > 100 | – | –
5 | COc1cc2ccnc(-c3n[nH]c4cc(OC)c(OC)cc34)c2cc1OC | > 100 | > 100 | > 100 | – | > 100 | – | > 100 | > 100 | – | – | – | – | – | > 100 | – | –
6 | N#CC1=C(N)Oc2c(ccc3cccnc23)C1c1ccccc1 (stereo not drawn) | > 46.3 | > 100 | > 21.9 | 9.36 | > 100 | > 30.7 | 21.3 | > 100 | – | – | – | – | – | 50.9 | 11.4 | –
7 | CC(C)(C)c1cc(C#N)c2c(c1)C(=O)OC2(c1ccccc1)c1ccccc1C#N (stereo not drawn) | > 100 | > 100 | > 100 | > 100 | > 100 | > 100 | > 100 | > 100 | – | – | – | – | – | > 100 | – | –
8 | O=C(Cc1ccccc1)N/N=C(/c1nc2ccc([N+](=O)[O-])cc2[nH]c1=O)C(O)c1ccco1 (stereo not drawn) | > 100 | > 100 | > 100 | > 100 | > 100 | – | > 100 | > 100 | – | – | – | – | – | > 100 | – | –
9 | OCC(O)C(OC1OC(CO)C(O)C(O)C1O)c1nn(-c2ccc(Cl)cc2)c2nc3cc(Cl)c(Cl)cc3nc12 (stereo not drawn) | > 100 | > 100 | > 100 | > 100 | > 100 | > 100 | > 100 | > 100 | – | – | – | – | – | – | – | –
10 | NC(=O)/C=C/c1c[nH]c2nccnc12 | > 54 | 79 | 28.9 | – | 0.609 | 4.17 | > 37.5 | 0.662 | – | – | – | – | – | 5.72 | – | > 34
11 | CC(C(=O)c1ccc(O)cc1)C1(O)C(=O)Nc2c(Cl)cc(Cl)cc21 (stereo not drawn) | > 100 | 57.6 | > 100 | > 85.5 | > 100 | 68.8 | > 100 | > 100 | – | – | – | – | – | > 100 | – | –
12 | [N-]=[N+]=Nc1nnc(CCCCc2nnc(N=[N+]=[N-])o2)o1 | > 100 | > 100 | > 100 | > 100 | > 100 | > 100 | > 100 | > 100 | – | – | – | – | – | > 100 | – | –
